Source: patent US11896594B2, “Palatable antiparasitic formulations” (Zoetis Services LLC, priority 2018, dated 2024)
Several values for one entry are separate records, joined by “and”; a condition that tells them apart may be missing. Equal entries are not always repeated.

Tested on: D. immitis
Experiment: Prevention of heartworm disease in dogs
Format: in vivo
Conditions: in vivo, po

Compound: CO/N=C1\C[C@]2(C[C@@H]3C[C@@H](C/C=C(\C)C[C@@H](C)/C=C/C=C4\CO[C@@H]5[C@H](O)C(C)=C[C@@H](C(=O)O3)[C@]45O)O2)O[C@H](/C(C)=C/C(C)C)[C@H]1C [moxidectin]
- rate of efficacy against ML-resistant D. immitis isolate: 98.8% and 99.5%
